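48-hour exposure; five concentrations; linearly interpolated endpoints. GI50 = concentration required for 50% inhibition of growth. The concentration for full growth arrest is given as TGI.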
Assays:
Assay in all cases: NCI tumour cell line growth inhibition, 48 h
M14 melanoma = test system: M14 melanoma
MOLT-4 leukemia = test system: MOLT-4 leukemia
HL-60(TB) leukemia = test system: HL-60(TB) leukemia
SR leukemia = test system: SR leukemia
SK-MEL-2 melanoma = test system: SK-MEL-2 melanoma
LOX IMVI melanoma = test system: LOX IMVI melanoma
A549 NSCLC = test system: A549 NSCLC
U251 CNS = test system: U251 CNS
NCI-H460 lung = test system: NCI-H460 lung
SNB-75 CNS = test system: SNB-75 CNS
NCI/ADR-RES ovarian = test system: NCI/ADR-RES ovarian
MALME-3M melanoma = test system: MALME-3M melanoma
HOP-62 NSCLC = test system: HOP-62 NSCLC
NCI-H226 lung = test system: NCI-H226 lung
K-562 leukemia = test system: K-562 leukemia
HCC-2998 colon = test system: HCC-2998 colon
SN12C renal = test system: SN12C renal
CAKI-1 renal = test system: CAKI-1 renal
HT29 colon = test system: HT29 colon
T-47D breast = test system: T-47D breast
UACC-257 melanoma = test system: UACC-257 melanoma
SNB-19 CNS = test system: SNB-19 CNS
HOP-92 NSCLC = test system: HOP-92 NSCLC
HCT-116 colon = test system: HCT-116 colon
CCRF-CEM leukemia = test system: CCRF-CEM leukemia
UACC-62 melanoma = test system: UACC-62 melanoma
PC-3 prostate = test system: PC-3 prostate
SF-539 CNS = test system: SF-539 CNS
SW-620 colon = test system: SW-620 colon
TK-10 renal = test system: TK-10 renal
786-0 renal = test system: 786-0 renal
ACHN renal = test system: ACHN renal
RXF 393 renal = test system: RXF 393 renal
MCF7 breast = test system: MCF7 breast
RPMI-8226 leukemia = test system: RPMI-8226 leukemia
KM12 colon = test system: KM12 colon
NCI-H522 lung = test system: NCI-H522 lung
SF-268 CNS = test system: SF-268 CNS
OVCAR-3 ovarian = test system: OVCAR-3 ovarian
A498 renal = test system: A498 renal
SK-MEL-5 melanoma = test system: SK-MEL-5 melanoma
SK-MEL-28 melanoma = test system: SK-MEL-28 melanoma
MDA-MB-231 breast = test system: MDA-MB-231 breast
NCI-H23 lung = test system: NCI-H23 lung
COLO 205 colon = test system: COLO 205 colon
HS 578T breast = test system: HS 578T breast
SF-295 CNS = test system: SF-295 CNS
EKVX NSCLC = test system: EKVX NSCLC
SK-OV-3 ovarian = test system: SK-OV-3 ovarian
DU-145 prostate = test system: DU-145 prostate
OVCAR-8 ovarian = test system: OVCAR-8 ovarian
HCT-15 colon = test system: HCT-15 colon
IGROV1 ovarian = test system: IGROV1 ovarian
MDA-MB-435 = test system: MDA-MB-435
UO-31 renal = test system: UO-31 renal
OVCAR-5 ovarian = test system: OVCAR-5 ovarian
BT-549 breast = test system: BT-549 breast

With C#CCn1cnc2cnc(Nc3cccc(NC(=O)CCl)c3)nc21 the GI50 (M14 melanoma) was 22.5 µM, the TGI (M14 melanoma) was over 62.5 µM and the GI50 (MOLT-4 leukemia) was 21.5 µM. For the same compound, the TGI (MOLT-4 leukemia) was over 62.5 µM, the GI50 (HL-60(TB) leukemia) was 15.7 µM and the TGI (HL-60(TB) leukemia) was 41.3 µM. The GI50 (SR leukemia) was 56.8 µM, the TGI (SR leukemia) was over 62.5 µM and the GI50 (SK-MEL-2 melanoma) was 43 µM. It also gave a TGI (SK-MEL-2 melanoma) of over 62.5 µM, a GI50 (LOX IMVI melanoma) of 16.3 µM and a TGI (LOX IMVI melanoma) of over 62.5 µM. The GI50 (A549 NSCLC) was 20 µM, the TGI (A549 NSCLC) was over 62.5 µM and the GI50 (U251 CNS) was 19.6 µM. The TGI (U251 CNS) was over 62.5 µM, the GI50 (NCI-H460 lung) was 22.7 µM and the TGI (NCI-H460 lung) was over 62.5 µM. The GI50 (SNB-75 CNS) was 8.18 µM, the TGI (SNB-75 CNS) was over 62.5 µM and the GI50 (NCI/ADR-RES ovarian) was 26.4 µM. It also gave a TGI (NCI/ADR-RES ovarian) of over 62.5 µM, a GI50 (MALME-3M melanoma) of 23.2 µM and a TGI (MALME-3M melanoma) of over 62.5 µM. It also gave a GI50 (HOP-62 NSCLC) of 54.7 µM, a TGI (HOP-62 NSCLC) of over 62.5 µM and a GI50 (NCI-H226 lung) of 49.9 µM. For the same compound, the TGI (NCI-H226 lung) was over 62.5 µM, the GI50 (K-562 leukemia) was 23.7 µM and the TGI (K-562 leukemia) was over 62.5 µM. For the same compound, the GI50 (HCC-2998 colon) was 46.8 µM, the TGI (HCC-2998 colon) was over 62.5 µM and the GI50 (SN12C renal) was 19.4 µM. For the same compound, the TGI (SN12C renal) was over 62.5 µM, the GI50 (CAKI-1 renal) was 22.9 µM and the TGI (CAKI-1 renal) was over 62.5 µM. The GI50 (HT29 colon) was 17.3 µM, the TGI (HT29 colon) was over 62.5 µM and the GI50 (T-47D breast) was over 62.5 µM. The TGI (T-47D breast) was over 62.5 µM, the GI50 (UACC-257 melanoma) was 51 µM and the TGI (UACC-257 melanoma) was over 62.5 µM. The GI50 (SNB-19 CNS) was 36.5 µM, the TGI (SNB-19 CNS) was over 62.5 µM and the GI50 (HOP-92 NSCLC) was over 62.5 µM. For the same compound, the TGI (HOP-92 NSCLC) was over 62.5 µM, the GI50 (HCT-116 colon) was 21.3 µM and the TGI (HCT-116 colon) was over 62.5 µM. For the same compound, the GI50 (CCRF-CEM leukemia) was 15.3 µM, the TGI (CCRF-CEM leukemia) was over 62.5 µM and the GI50 (UACC-62 melanoma) was 22.6 µM. For the same compound, the TGI (UACC-62 melanoma) was over 62.5 µM, the GI50 (PC-3 prostate) was 27.7 µM and the TGI (PC-3 prostate) was over 62.5 µM. The GI50 (SF-539 CNS) was 16.9 µM, the TGI (SF-539 CNS) was over 62.5 µM and the GI50 (SW-620 colon) was 19.1 µM. It also gave a TGI (SW-620 colon) of over 62.5 µM, a GI50 (TK-10 renal) of 22.9 µM and a TGI (TK-10 renal) of over 62.5 µM. The GI50 (786-0 renal) was 23.3 µM, the TGI (786-0 renal) was over 62.5 µM and the GI50 (ACHN renal) was 10.9 µM. The TGI (ACHN renal) was 23.3 µM, the GI50 (RXF 393 renal) was 10.1 µM and the TGI (RXF 393 renal) was 25.4 µM. For the same compound, the GI50 (MCF7 breast) was 15.3 µM, the TGI (MCF7 breast) was over 62.5 µM and the GI50 (RPMI-8226 leukemia) was 19.2 µM. The TGI (RPMI-8226 leukemia) was over 62.5 µM, the GI50 (KM12 colon) was 21.1 µM and the TGI (KM12 colon) was over 62.5 µM. For the same compound, the GI50 (NCI-H522 lung) was 10.3 µM, the TGI (NCI-H522 lung) was 22.4 µM and the GI50 (SF-268 CNS) was 25.8 µM. It also gave a TGI (SF-268 CNS) of over 62.5 µM, a GI50 (OVCAR-3 ovarian) of 15.2 µM and a TGI (OVCAR-3 ovarian) of over 62.5 µM. The GI50 (A498 renal) was 21 µM, the TGI (A498 renal) was over 62.5 µM and the GI50 (SK-MEL-5 melanoma) was 10.3 µM. The TGI (SK-MEL-5 melanoma) was 19.5 µM, the GI50 (SK-MEL-28 melanoma) was 25.3 µM and the TGI (SK-MEL-28 melanoma) was over 62.5 µM. The GI50 (MDA-MB-231 breast) was 20.8 µM, the TGI (MDA-MB-231 breast) was over 62.5 µM and the GI50 (NCI-H23 lung) was 38.8 µM. For the same compound, the TGI (NCI-H23 lung) was over 62.5 µM, the GI50 (COLO 205 colon) was 15.2 µM and the TGI (COLO 205 colon) was 45 µM. The GI50 (HS 578T breast) was 17.3 µM, the TGI (HS 578T breast) was over 62.5 µM and the GI50 (SF-295 CNS) was 47.1 µM. The TGI (SF-295 CNS) was over 62.5 µM, the GI50 (EKVX NSCLC) was over 62.5 µM and the TGI (EKVX NSCLC) was over 62.5 µM. For the same compound, the GI50 (SK-OV-3 ovarian) was 23.6 µM, the TGI (SK-OV-3 ovarian) was over 62.5 µM and the GI50 (DU-145 prostate) was 29.8 µM. The TGI (DU-145 prostate) was over 62.5 µM, the GI50 (OVCAR-8 ovarian) was 26.3 µM and the TGI (OVCAR-8 ovarian) was over 62.5 µM. For the same compound, the GI50 (HCT-15 colon) was 29.3 µM, the TGI (HCT-15 colon) was over 62.5 µM and the GI50 (IGROV1 ovarian) was 6.99 µM. It also gave a TGI (IGROV1 ovarian) of 22.3 µM, a GI50 (MDA-MB-435) of 28.5 µM and a TGI (MDA-MB-435) of over 62.5 µM. The GI50 (UO-31 renal) was 10.9 µM, the TGI (UO-31 renal) was 55.3 µM and the GI50 (OVCAR-5 ovarian) was 29.8 µM. For the same compound, the TGI (OVCAR-5 ovarian) was over 62.5 µM, the GI50 (BT-549 breast) was 13.3 µM and the TGI (BT-549 breast) was over 62.5 µM.

Reference: PubChem BioAssay (NCI)
